Experimental data: a melting point compilation (Tetko et al.; mined from patent text by program, amines drawn as free bases though some values may be those of a salt)

melting point [°C]	Compound
> 300	CCn1cc(C(=O)O)c(=O)c2cc(F)c(N3CCSCC3)c(F)c21
102	Cc1ccc(CC2(O)CCN(CCOC(=O)c3ccc(OCc4ccccc4)cc3)CC2)cc1
124	COC(=O)c1ccc(NCc2cc(S(C)(=O)=O)ccc2OCc2ccccc2)cc1
138 to 139	CC#CN(C(C)=O)c1nc2ccccc2s1
163	C=CCc1cc2c(c(O)c1C)C(=O)c1c(OC)c3c(c(O)c1C2=O)-c1c(cc2cnn(-c4ccccc4)c(=O)c2c1O)CC3
105	O=C(O)CCCCCCCCCCCCCCCCC(=O)n1nnc2ccccc21
160 to 163	CC1(C)Oc2ccc(S(=O)(=O)c3ccccc3)cc2C(N)C1O (stereo unspecified)
226 to 228	CC(=O)Nc1ccc(OCC(O)CN2CCC(NC(=O)c3ccccc3)CC2)cc1 (stereo unspecified)
127 to 128	COc1ccc(N2CCN(c3c(C)c(C)c4c(c3C)C[C@@H](C)O4)CC2)cc1
90.5 to 92.5	C=C(Br)C(=O)Nc1ccccc1
167 to 169	C#CCOc1cc(-n2c(=S)n3n(c2=S)COCC3)c(F)cc1Cl
180	O=C(c1ccc(Cl)cc1)c1ccc2nc(Cl)cc(CCc3cccc(Cl)c3)c2c1
63 to 64.5	CC(C(=O)CO)c1ccc(-c2ccccc2)c(F)c1 (stereo unspecified)
290 to 297	O=CN1CCN(c2c(F)c(F)c3c(=O)c(C(=O)O)cn(C4CC4)c3c2F)CC1
90 to 92.6	CCOc1cc(C=O)ccc1OCC(=O)O
44 to 47	O=CNC[C@H]1CN(c2ccc(N3CCOCC3)c(F)c2)C(=O)O1
157 to 159	COc1ccccc1C(Cn1ccnc1)S(=O)c1ccc(C(=O)O)cc1 (stereo unspecified)
145 to 146	O=[N+]([O-])c1ccccc1S(=O)(=O)c1ccccc1
109 to 110	CCOC(=O)C(=Cc1ccco1)c1csc(N)n1
105 to 106	CCOC(=O)C(=CNC1CC1)C(=O)c1c(F)c(OC(F)F)c(F)c(F)c1[N+](=O)[O-]
162	COc1ccc(C(CSc2ccccc2N)C(=O)O)cc1OC (stereo unspecified)
90 to 92	CN(C)CCCN(c1ccccc1)c1ncccc1NC(=O)c1ccccc1Cl
150 to 152	Cn1cc(C(=O)c2ccc(Cl)cc2)cc1C(=O)c1ccc(Cl)nc1
210 to 211	CCc1nc2ncnn2c(N)c1CCc1ccccc1
122 to 124	CCOC1CC2(C)C(CCC3C4CCC(C(=O)OC)C4(C)CC(NCCC(C)C)C32)CC1O (stereo unspecified)

melting point [°C]	Compound
150 to 151	C=Cn1cc(C(=O)OCC)c(=O)c2cc(F)c(Cl)nc21
118 to 120	O=C(O)[C@H]1CC[C@@H](C(=O)N(Cc2ccccc2)OCc2ccccc2)C1 (relative stereo)
77 to 79	C=C1C2CCC(=O)C23CCC(C3)C1(C)C (stereo unspecified)
230 to 232	COc1ccc(O)c(C(=O)Nc2cc(Cl)cc(Cl)c2)c1
122 to 124	CCOC(=O)c1sc(N2CCN(Cc3ccccc3)C2=O)nc1C
235 to 237	Cc1nc2cc(Nc3nccc(-c4ccc(Cl)nc4)n3)ccc2s1
203 to 205	C(#Cc1ccsc1)C1=CCN(Cc2c[nH]c3ncccc23)CC1
117 to 118	Oc1ccc(-c2nn(CC3CCCCC3)c3c(C(F)(F)F)cccc23)c(O)c1
106 to 108	Cc1c(/C=N/OCCCOc2ccc(CC(=O)O)cc2)c2ccccc2n1C
85 to 87	CCc1cccc(CC)c1NC(=S)NC(C)(C)CC
86 to 90	CNC(=O)N1CCC(C(Nc2ccc(F)cc2)c2ccc(F)cc2)CC1 (stereo unspecified)
172 to 174	Cc1nn(-c2cc(O)c(Cl)cc2Cl)c(C)c1Cl
207 to 208	O=S(=O)(Cc1ccccc1)Nc1ncc(-c2ccccc2)nc1Cc1ccccc1
158	COc1ccc(CN=C(Cc2ccccc2)N2CC3C(=O)CCC(c4ccccc4)(c4ccccc4)C3C2)cc1 (stereo unspecified)
229 to 231	C(=Nc1c2c(nc3ccccc13)CCCC2)c1cccc2ccccc12
192 to 193	O=C1c2ccccc2C(=O)N1CC(=O)N1c2ccccc2N(CCCc2ccccc2)C(=O)[C@H]2CCC[C@H]21 (relative stereo)
242 to 248	Fc1ccc(-c2nc(SC(F)(F)C(F)F)[nH]c2-c2ccncc2)cc1
114	COc1cc2c(cc1OC)C(COCCN1CCN(c3ccc(F)cc3)CC1)OCCC2 (stereo unspecified)
208 to 209	COc1ccc(CNc2nc(OCc3ccccn3)ncc2C(N)=O)cc1Cl
172	COc1ccccc1CC(=O)N1C[C@@H]2SCCC(c3ccccc3)(c3ccccc3)[C@@H]2C1 (racemic)
98 to 100	COc1ccc2c(c1)CC(C(=O)O)O2 (racemic)
> 300	O=C(O)c1nc2cc(-n3ccnc3)c([N+](=O)[O-])cc2[nH]c1=O
205 to 211	CC(C)C1N(CC(N)=O)C(=O)CN1C(=O)CN (stereo unspecified)
108 to 110	Cc1ccc(OCCOS(N)(=O)=O)cc1
178 to 181	CC(C)(C)c1cc(C=C2CON(C(N)=O)C2=O)cc(C(C)(C)C)c1O

melting point [°C]	Compound
95	OC1(C2CC2)CSC(=S)N1c1ccccn1 (stereo unspecified)
192 to 196	CC(=C1SC(=O)NC1=O)c1ccc(OCCOc2c(-c3cc(F)ccc3C)n(C)c3ccccc3c2=O)cc1
81 to 82	CC(=O)c1cc(C)cc(Br)c1O
135	CCOC(=O)C(=O)NNC(=O)c1cc2sc(C)c(N(C)S(=O)(=O)c3cccs3)c2[nH]1
165 to 167	O=[N+]([O-])c1cnc2cc(Cl)ccc2c1Cl
115 to 117	CC1(CCC(O)(c2ccccc2)c2ccccc2)CCCCC12OCCO2 (stereo unspecified)
222 to 223	CC(=O)Nc1ncc2ncn([C@@H]3C[C@H](OC(C)=O)[C@@H](O)[C@H]3O)c2n1 (racemic)
162 to 164	CC(C)n1cnc2c(NCc3cc(O)ccc3O)nc(NC[C@@H](C)O)nc21
241 to 242	CCCc1nc2c(N)nc3ccccc3c2n1CC1(O)CCN(C)CC1
131	COc1ccc(-c2cc(=O)n(CCc3ccc(OC)c(OC)c3)nc2-c2ccc(OC)cc2)cc1
190 to 191	CCOC(=O)C1=C(CO)NC(CO)=C(C(=O)OCC)C1c1ccccc1Cl
241 to 249	CC1(C)Oc2ccc(S(=O)(=O)C(F)(F)C(F)(F)C(F)(F)F)cc2[C@@H](N2Cc3ccccc3C2=O)[C@@H]1O (relative stereo)
238 to 240	CNc1ncn(-c2c(C)cccc2Br)c(=O)n1
150	Cn1ccc(Nc2ccc([N+](=O)[O-])cc2[N+](=O)[O-])n1
139	Cc1ccccc1-c1nc2ccccc2n1Cc1c(F)cccc1F
84 to 85	C/C(=C\c1ccncc1)c1ccc2c(c1)C(C)(C)CCC2(C)C
200 to 202	COc1ccc(CC(=O)c2c(O)c3cccnc3n(-c3ccccc3)c2=O)c(OC)c1
121 to 122	CC1(C)CNc2cc(C(F)(F)F)ccc2C1=O
145	CC(C)(C)OC(=O)n1[nH]c(=O)c2ccccc21
159 to 160	Cc1nc2ccccc2c(=O)n1CCO
70 to 72	CCOC(=O)c1cc([N+](=O)[O-])c(Cl)nc1C(=O)OCC
75	N#Cc1cc(F)c(F)cc1[N+](=O)[O-]
103 to 105	CC(C)(C)c1cc(C(=O)c2cccs2)cc2c1OCC2(C)C
120 to 122	COC(=O)C(=CC(c1ccccc1)c1ccccc1)C(=O)OC
229 to 231	CCc1c(-c2ccc(OCc3ccccc3)cc2)c2c3c(c4c(OCc5ccccc5)ccc1n42)C(=O)OC3=O

melting point [°C]	Compound
172 to 174	O=C(CCN1CCN(c2ccccc2)CC1)Nc1ccc(O)cc1
206	CON=C(C)c1ccccc1NC(C(N)=O)c1c(Cl)cccc1Cl (stereo unspecified)
51 to 52	Fc1ccc(-c2cccs2)cc1
163 to 165	OCCNc1c(Br)cnc2ccccc12
197 to 198	COc1ccc(S(=O)(=O)N2CCC(N3N=C(c4ccc(OC)c(OC)c4)CCC3=O)CC2)cc1
126 to 128	CC1(C)CCc2ccccc2C1c1cncnc1SCF (stereo unspecified)
166 to 168	N#CCC(=O)N(N)c1c(Cl)cc(Cl)cc1Cl
192	COc1ccc(CN(C)CCCc2ccc(NC(=O)c3cccc4c(=O)c5cccc([N+](=O)[O-])c5[nH]c34)cc2)cc1OC
96 to 100	CCOC(=O)C(C(=O)OCC)c1cccc(C(=O)c2ccc(Cl)cc2)c1[N+](=O)[O-]
203 to 205	CC(C)(C)c1nc(C#N)nc(C(C)(C)C)c1O
118	CC(C)(O)C#Cc1ccc(-c2ccc(F)cc2)cc1
172 to 174	N#CC(C(N)=O)c1ccccc1[N+](=O)[O-] (stereo unspecified)
202 to 204	COC(=O)c1ccc2c(c1)C(Oc1ccccn1)C(O)C(C)(C)O2 (stereo unspecified)
97 to 98	CC(C)=CCON1C(=O)c2ccccc2C1=O
183 to 188	COc1ccc(C(CC(N)=O)N2C(=O)c3ccccc3C2=O)cc1 (stereo unspecified)
195 to 197	Nc1ncnc2c1ncn2OCC(CO)SCP(=O)(O)O (stereo unspecified)
90	COC(=S)CCC[C@@H](O)[C@@H](c1ccccc1)c1ccc2ccccc2c1 (relative stereo)
113 to 114	COc1cc(OC(C)C)cc2oc(C)cc(=S)c12
199 to 201	Cc1c(Sc2ccc(Cl)cc2)nn(-c2ccc(S(C)(=O)=O)cc2)c(=O)c1C#N
135	CSc1ccc(-c2nn(CC3CC3)c(=S)cc2-c2ccc(Cl)cc2)cc1
127 to 128	C=C1C(=O)N(C)CCC1(O)c1cccc(OC)c1 (stereo unspecified)
194 to 195	CC(C)n1c(C=O)c(-c2ccc(F)cc2)c(-c2ccc(F)cc2)c1C(=O)Nc1ccc(S(N)(=O)=O)cc1

Compound	melting point [°C]
N#CC1CN1C(=O)NC(=O)c1ccc(Cl)cc1 (stereo unspecified)	160 to 162
C#Cc1ncn2c1CN(C)C(=O)c1cc(F)ccc1-2	207 to 208
CN1CCCC(c2cccc3[nH]ccc23)C1 (stereo unspecified)	151
Clc1ccc(C2CCNCC2)cc1	143
